Assay results taken from publication PMC10726358 (Journal of Medicinal Chemistry, 2023).
Like-named read-outs stand apart in the source and are kept apart here.

How the values were obtained:
BRDT BD1 = BRDT BD1 (Homo sapiens, UniProt Q58F21); assay: BROMOscan BRDT BD1; assay type: binding
Experimental: (§1) The BRD4 BD1/BD2 TR-FRET assay had been used routinely for this optimization work, and in order to better understand the BET BD1 domain selectivity profile, 31 was tested in TR-FRET BRD2, BRD3, and BRDT assays.
(§2) [52] BROMOscan recombinant protein binding assays were carried out at DiscoverX. (accessed April 4, 2023).

Dopamine 2 (D2) = target: T1, Dopamine 2 (D2) (Homo sapiens, UniProt P14416); assay: Cross screening: Dopamine 2 (D2) Antagonist; assay type: biochemical
T1 construct: purchased GSK enhanced cross-screening panel (in-house)

5-HT2C = target: T2, 5-HT2C (Homo sapiens, UniProt P28335); assay: Cross screening: 5-HT2C antagonist; assay type: biochemical
T2 construct: purchased GSK enhanced cross-screening panel (in-house)
T2 sequence (P28335 33-458): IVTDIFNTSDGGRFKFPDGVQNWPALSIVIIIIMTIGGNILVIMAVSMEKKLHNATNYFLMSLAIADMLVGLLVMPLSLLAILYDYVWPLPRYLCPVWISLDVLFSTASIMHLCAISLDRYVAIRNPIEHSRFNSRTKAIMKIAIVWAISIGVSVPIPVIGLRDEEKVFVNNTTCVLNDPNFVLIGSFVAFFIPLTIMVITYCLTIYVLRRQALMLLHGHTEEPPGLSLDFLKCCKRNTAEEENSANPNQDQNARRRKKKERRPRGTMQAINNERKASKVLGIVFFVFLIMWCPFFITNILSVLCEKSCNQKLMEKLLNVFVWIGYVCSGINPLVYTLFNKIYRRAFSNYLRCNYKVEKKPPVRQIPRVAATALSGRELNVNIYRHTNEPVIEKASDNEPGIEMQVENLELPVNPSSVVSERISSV

Beta2 Adrenoceptor = target: T3, Beta2 Adrenoceptor (Homo sapiens, UniProt P07550); assay: Cross screening: Beta2 Adrenoceptor Antagonist; assay type: biochemical
T3 construct: purchased GSK enhanced cross-screening panel (in-house)
T3 sequence (P07550 whole entry): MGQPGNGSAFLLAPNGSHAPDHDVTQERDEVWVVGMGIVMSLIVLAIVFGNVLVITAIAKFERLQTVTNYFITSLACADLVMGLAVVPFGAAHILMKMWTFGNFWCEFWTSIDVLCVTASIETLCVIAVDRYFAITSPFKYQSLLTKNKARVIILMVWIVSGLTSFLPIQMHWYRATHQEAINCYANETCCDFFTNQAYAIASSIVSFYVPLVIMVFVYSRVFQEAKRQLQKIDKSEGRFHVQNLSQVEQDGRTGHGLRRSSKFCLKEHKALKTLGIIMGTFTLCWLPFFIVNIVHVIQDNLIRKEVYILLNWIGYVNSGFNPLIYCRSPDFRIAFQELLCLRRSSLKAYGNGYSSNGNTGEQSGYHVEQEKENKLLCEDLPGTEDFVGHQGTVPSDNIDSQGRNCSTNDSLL

BRD4 BD1 [1] = assay type: binding, human; conditions: TR-FRET
Experimental: (§3) As a strategic decision, every compound synthesized across all of GSK’s bromodomain research projects was tested in both a BRD4 BD1 and a BRD4 BD2 TR-FRET assay as part of tier 1 data generation. […] LipE is a straightforward, yet powerful metric for medicinal chemistry teams to normalize potency relative to lipophilicity, a critical factor both for parameters of the human dose equation and also for promiscuity.[43],[44] To aid interpretation, diagonal lines representing different LipE values are shown, with the most desirable space found toward the top left-hand area of the plot representing molecules with the comparatively highest potency per unit of lipophilicity.
(§4) All TR-FRET and hWB cytokine assays have been described previously.[54]

D1 = target: T4, D1 (Homo sapiens, UniProt P21728); assay: Cross screening: D1 antagonist; assay type: biochemical
T4 construct: purchased GSK enhanced cross-screening panel (in-house)
T4 sequence (P21728 whole entry): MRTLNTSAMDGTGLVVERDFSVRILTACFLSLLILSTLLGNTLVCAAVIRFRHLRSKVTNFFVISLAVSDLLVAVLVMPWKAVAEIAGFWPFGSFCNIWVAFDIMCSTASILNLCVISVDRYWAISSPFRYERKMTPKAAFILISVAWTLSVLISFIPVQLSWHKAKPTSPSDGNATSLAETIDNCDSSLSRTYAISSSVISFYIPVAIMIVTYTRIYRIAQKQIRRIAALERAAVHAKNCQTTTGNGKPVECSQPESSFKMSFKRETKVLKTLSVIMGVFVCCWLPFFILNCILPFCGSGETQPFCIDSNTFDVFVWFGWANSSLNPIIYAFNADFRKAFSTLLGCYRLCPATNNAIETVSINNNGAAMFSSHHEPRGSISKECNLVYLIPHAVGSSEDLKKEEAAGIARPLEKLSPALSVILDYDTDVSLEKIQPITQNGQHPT

Dopamine D2 = target: T5, Dopamine D2 (Homo sapiens, UniProt P14416); assay: Cross screening: Dopamine D2 Agonist; assay type: biochemical
T5 construct: purchased GSK enhanced cross-screening panel (in-house)

BRD9 = target: T6, BRD9 (Homo sapiens, UniProt Q9H8M2); assay: BROMOscan BRD9; assay type: binding
T6 construct: ≥2000-fold selectivity over all 20 non-BET bromodomains tested; purchased DiscoverX
T6 sequence (Q9H8M2 136-240 limits assumed): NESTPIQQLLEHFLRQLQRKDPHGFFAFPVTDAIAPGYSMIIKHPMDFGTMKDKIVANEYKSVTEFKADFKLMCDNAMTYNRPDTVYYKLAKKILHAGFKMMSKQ
Experimental: as §1, §2

BRD7 = target: T7, BRD7 (Homo sapiens, UniProt Q9NPI1); assay: BROMOscan BRD7; assay type: binding
T7 construct: ≥2000-fold selectivity over all 20 non-BET bromodomains tested; purchased DiscoverX
T7 sequence (Q9NPI1 131-235 limits assumed): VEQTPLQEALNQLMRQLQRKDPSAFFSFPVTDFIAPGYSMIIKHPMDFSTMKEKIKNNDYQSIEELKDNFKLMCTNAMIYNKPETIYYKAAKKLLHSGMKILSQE
Experimental: as §1, §2

MCP-1 = assay: LPS-stimulated human whole blood (hWB) MCP-1 release assay; assay type: cell-based
Text: The utility of a chemical probe in target validation is directly related to its quality, with important publications detailing requirements to aid researchers.[36]−[38] […] It was accepted that selectivity would be judged initially through a mutant BRD4 TR-FRET assay and would likely shift depending on the protein construct and assay format. […] Previous studies have shown that BET BD1 inhibition is sufficient to inhibit in vitro production of MCP-1 in LPS-stimulated hWB and, as such, served as a relevant measure of cellular target engagement and, concomitantly, proof of cellular permeability.[12],[39] Selectivity over other human bromodomains outside of the BET family, known collectively as non-BET bromodomains, was also required,[40] with a ≥ 100-fold selectivity window targeted. To ensure the molecules remained within developable chemical space, a target property forecast index (PFI) as defined by chromLogDpH7.4 + number of aromatic rings ≤6 was set.[41]
To understand cellular target engagement, 21 was tested in an LPS-stimulated hWB assay measuring inhibition of the inflammatory mediator MCP-1 secretion.
as §4

BRDT BD2 = BRDT BD2 (Homo sapiens, UniProt Q58F21); assay: BRDT BD2 TR-FRET assay; assay type: binding
Experimental: as §1, §4

BRD4 BD2 = BRD4 BD2 TR-FRET assay; assay type: binding, human
Experimental: as §3, §4

OATP1B1 = OATP1B1 (Homo sapiens, UniProt Q9Y6L6); assay: Cross screening: OATP1B1 inhibitor
OATP1B1, sequence (Q9Y6L6 whole entry): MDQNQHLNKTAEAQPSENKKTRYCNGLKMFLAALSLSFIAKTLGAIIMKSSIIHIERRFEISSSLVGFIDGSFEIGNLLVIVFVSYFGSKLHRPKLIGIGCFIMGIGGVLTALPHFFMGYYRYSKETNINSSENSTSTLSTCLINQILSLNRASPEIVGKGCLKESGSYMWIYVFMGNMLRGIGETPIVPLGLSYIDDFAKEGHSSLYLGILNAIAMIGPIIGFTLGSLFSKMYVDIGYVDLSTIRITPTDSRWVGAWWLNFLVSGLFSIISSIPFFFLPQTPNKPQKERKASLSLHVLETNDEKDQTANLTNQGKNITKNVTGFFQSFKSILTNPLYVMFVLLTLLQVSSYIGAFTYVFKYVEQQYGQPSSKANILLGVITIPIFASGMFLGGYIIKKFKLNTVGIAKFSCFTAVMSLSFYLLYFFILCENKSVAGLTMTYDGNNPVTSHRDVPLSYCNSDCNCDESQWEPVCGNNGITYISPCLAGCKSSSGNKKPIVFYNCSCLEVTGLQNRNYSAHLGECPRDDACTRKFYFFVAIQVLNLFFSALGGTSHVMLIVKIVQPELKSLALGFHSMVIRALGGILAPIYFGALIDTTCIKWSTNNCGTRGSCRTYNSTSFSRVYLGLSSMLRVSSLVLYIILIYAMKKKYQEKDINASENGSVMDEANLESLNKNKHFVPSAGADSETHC

BRD1 = target: T8, BRD1 (Homo sapiens, UniProt O95696); assay: BROMOscan BRD1; assay type: binding
T8 construct: ≥2000-fold selectivity over all 20 non-BET bromodomains tested; purchased DiscoverX
T8 sequence (O95696 562-666 limits assumed): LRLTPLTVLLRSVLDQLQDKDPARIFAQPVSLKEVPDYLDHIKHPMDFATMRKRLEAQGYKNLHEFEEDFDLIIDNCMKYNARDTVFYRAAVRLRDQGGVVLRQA
Experimental: as §1, §2

Nav1.5 = Nav1.5 (Homo sapiens, UniProt Q14524); assay: Cross screening: Nav1.5 blocker
Aurora B = target: T9, Aurora B (Homo sapiens, UniProt Q96GD4); assay: Cross screening: Aurora B inhibitor; assay type: biochemical
T9 construct: purchased GSK enhanced cross-screening panel (in-house)
T9 sequence (Q96GD4 whole entry): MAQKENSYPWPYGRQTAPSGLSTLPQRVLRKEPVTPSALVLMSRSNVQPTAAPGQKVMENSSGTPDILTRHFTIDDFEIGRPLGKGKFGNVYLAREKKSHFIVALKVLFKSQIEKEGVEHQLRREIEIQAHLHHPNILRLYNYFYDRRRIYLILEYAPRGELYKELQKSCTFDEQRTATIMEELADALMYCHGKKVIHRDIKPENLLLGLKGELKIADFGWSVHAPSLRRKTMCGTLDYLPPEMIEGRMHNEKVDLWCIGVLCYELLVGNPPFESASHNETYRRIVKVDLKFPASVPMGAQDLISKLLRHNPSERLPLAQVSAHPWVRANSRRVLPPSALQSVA

SMARCA2 = target: T10, SMARCA2 (Homo sapiens, UniProt P51531); assay: BROMOscan SMARCA2; assay type: binding
T10 construct: ≥2000-fold selectivity over all 20 non-BET bromodomains tested; purchased DiscoverX
T10 sequence (P51531 1378-1506 limits assumed): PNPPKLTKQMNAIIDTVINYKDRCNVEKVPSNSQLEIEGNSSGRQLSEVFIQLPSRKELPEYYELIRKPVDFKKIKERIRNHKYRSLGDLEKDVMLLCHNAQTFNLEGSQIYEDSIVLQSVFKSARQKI
Experimental: as §1, §2

[2] = test system: Phospholipoidosis induction; assay: Cross screening: Phospholipoidosis induction
[3] = target: T11, Acetylcholinesterase (AChE) (Homo sapiens, UniProt P22303); assay: Cross screening: Acetylcholinesterase (AChE) antagonist; assay type: biochemical
T11 construct: purchased GSK enhanced cross-screening panel (in-house)

[4] = Artificial membrane permeability assay; conditions: PAMPA
Experimental: as §1
ChromatographicLogD at pH 7.4, artificial membrane permeability, CLND solubility, and CAD solubility were measured using published protocols.[55]

hERG = hERG (Homo sapiens, UniProt Q12809); assay: Cross screening: hERG blocker
BRD4 BD1 [5] = target: T12, BRD4 BD1 (Homo sapiens, UniProt O60885); assay: BROMOscan BRD4 BD1; assay type: binding
T12 construct: BRD4 BD1; purchased DiscoverX
Experimental: as §1, §2

non-BET bromodomains = assay: BROMOscan non-BET bromodomain panel; assay type: binding, human
Experimental: as §1, §2

BRD2 BD1 = BRD2 BD1 (Homo sapiens, UniProt P25440); assay: BROMOscan BRD2 BD1; assay type: binding
BRD2 BD1, sequence (P25440 74-180 limits assumed): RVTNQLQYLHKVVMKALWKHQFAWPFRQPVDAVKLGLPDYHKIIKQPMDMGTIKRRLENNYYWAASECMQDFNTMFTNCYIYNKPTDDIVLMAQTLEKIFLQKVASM
Experimental: as §1, §2

CECR2 = target: T13, CECR2 (Homo sapiens, UniProt Q9BXF3); assay: BROMOscan CECR2; assay type: binding
T13 construct: ≥2000-fold selectivity over all 20 non-BET bromodomains tested; purchased DiscoverX
T13 sequence (Q9BXF3 434-538 limits assumed): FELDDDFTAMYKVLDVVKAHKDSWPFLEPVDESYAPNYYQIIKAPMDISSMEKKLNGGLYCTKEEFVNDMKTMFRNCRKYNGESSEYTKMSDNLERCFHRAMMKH
Experimental: as §1, §2

BSEP = BSEP (Homo sapiens, UniProt O95342); assay: Cross screening: BSEP inhibitor
BSEP, sequence (O95342 whole entry): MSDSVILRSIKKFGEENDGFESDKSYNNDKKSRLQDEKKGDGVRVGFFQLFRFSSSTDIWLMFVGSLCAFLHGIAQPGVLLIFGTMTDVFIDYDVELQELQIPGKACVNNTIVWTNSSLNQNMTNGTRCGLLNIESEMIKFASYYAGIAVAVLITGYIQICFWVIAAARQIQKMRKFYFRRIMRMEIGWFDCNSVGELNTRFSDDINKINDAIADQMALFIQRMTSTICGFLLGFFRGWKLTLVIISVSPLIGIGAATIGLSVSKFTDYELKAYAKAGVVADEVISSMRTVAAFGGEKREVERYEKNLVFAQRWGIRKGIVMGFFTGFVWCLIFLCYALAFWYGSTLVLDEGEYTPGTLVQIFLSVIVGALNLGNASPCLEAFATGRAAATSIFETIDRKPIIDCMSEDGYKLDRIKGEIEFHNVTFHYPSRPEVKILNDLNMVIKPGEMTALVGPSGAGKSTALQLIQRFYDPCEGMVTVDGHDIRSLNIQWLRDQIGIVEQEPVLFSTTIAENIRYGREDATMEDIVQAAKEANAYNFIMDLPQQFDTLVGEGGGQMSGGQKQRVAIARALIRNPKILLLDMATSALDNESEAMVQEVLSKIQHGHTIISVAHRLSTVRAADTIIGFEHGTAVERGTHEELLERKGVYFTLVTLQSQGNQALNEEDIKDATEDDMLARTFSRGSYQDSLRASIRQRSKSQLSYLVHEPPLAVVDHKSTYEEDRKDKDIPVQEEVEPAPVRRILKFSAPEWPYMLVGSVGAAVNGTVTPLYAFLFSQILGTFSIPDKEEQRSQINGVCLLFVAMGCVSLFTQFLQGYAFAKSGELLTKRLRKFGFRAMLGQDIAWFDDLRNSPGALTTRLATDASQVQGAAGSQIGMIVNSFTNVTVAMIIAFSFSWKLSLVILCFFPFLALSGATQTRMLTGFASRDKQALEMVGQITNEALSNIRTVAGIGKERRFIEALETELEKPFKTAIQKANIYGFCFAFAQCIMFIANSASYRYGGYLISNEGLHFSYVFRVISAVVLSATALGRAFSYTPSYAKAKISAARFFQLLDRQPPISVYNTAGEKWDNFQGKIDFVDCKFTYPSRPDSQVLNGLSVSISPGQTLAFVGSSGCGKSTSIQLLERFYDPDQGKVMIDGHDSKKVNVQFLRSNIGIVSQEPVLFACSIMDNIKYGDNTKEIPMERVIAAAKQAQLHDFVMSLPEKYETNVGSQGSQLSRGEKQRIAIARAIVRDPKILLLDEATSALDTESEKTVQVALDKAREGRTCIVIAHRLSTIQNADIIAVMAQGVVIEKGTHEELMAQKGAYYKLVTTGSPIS

BRD8 BD1 = target: T14, BRD8 BD1 (Homo sapiens, UniProt Q9H0E9); assay: BROMOscan BRD8 BD1; assay type: binding
T14 construct: BRD8 BD1; purchased DiscoverX
T14 sequence (Q9H0E9 706-811 limits assumed): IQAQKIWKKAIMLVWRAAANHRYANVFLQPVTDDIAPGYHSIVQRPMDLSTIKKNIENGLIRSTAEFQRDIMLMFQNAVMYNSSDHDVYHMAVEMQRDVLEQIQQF
Experimental: as §1, §2

[6] = test system: pharmacologically relevant off-targets; assay: GSK enhanced cross-screening panel (whole panel); conditions: no activity at the concentrations tested
5-HT1B = target: T15, 5-HT1B (Homo sapiens, UniProt P28222); assay: Cross screening: 5-HT1B Agonist; assay type: biochemical
T15 construct: purchased GSK enhanced cross-screening panel (in-house)
T15 sequence (P28222 whole entry): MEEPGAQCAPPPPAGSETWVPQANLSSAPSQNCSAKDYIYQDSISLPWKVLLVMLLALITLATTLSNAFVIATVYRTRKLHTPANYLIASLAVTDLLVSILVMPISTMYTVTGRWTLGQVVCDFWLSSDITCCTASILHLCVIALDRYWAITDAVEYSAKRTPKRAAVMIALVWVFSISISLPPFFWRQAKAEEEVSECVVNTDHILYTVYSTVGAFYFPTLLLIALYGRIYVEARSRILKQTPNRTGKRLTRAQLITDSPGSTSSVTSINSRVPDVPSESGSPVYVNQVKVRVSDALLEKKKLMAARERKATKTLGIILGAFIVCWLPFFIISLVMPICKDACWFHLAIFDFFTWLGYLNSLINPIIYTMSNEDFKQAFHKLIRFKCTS

For `Cc1cc(-c2nc3ccccc3n2C[C@@H]2CCCN(C(=O)C3CCN(C(C)C)CC3)C2)cn(C)c1=O` [Compound 31, (S)-5-(1-((1-(1-Isopropylpiperidine-4-carbonyl)piperidin-3-yl)methyl)-1H-benzo [d]imidazole-2-yl)-1,3-dimethylpyridin-2(1H)-one], the “BROMOscan pKd BRDT BD1” value (BRDT BD1) was 8.1, the “fold selectivity BRDT BD1 over BD2” value (BRDT BD1; BROMOscan) was 400 fold and the “pXC50 Dopamine 2 (D2) Antagonist” value (Dopamine 2 (D2)) was under 4.0. The “pXC50 5-HT2C antagonist” value (5-HT2C) was under 4.0, the “pXC50 Beta2 Adrenoceptor Antagonist” value (Beta2 Adrenoceptor) was under 4.0 and the “BRD4 BD1 FRET pIC50” value (BRD4 BD1 [1]) was 7.8. The “fold selectivity (BRD4 BD1 over BRD4 BD2)” value (BRD4 BD1 [1]) was 1000 fold, the “pXC50 D1 antagonist” value (D1) was under 4.0 and the “pXC50 Dopamine D2 Agonist” value (Dopamine D2) was under 4.0. It also gave a Kd (BRD9) of 25.1 µM, a Kd (BRD7) of over 31.6 µM and an IC50 (MCP-1; Homo sapiens, read-out: hWB MCP-1 IC50) of 0.126 µM. The IC50 (MCP-1; LPS-stimulated human whole blood, read-out: hWB MCP-1 pIC50 (converted)) was 0.126 µM, the “BRDT BD2 TR-FRET pIC50” value (BRDT BD2) was 4.5 and the “BRD4 BD2 FRET pIC50” value (BRD4 BD2) was 4.8. For the same molecule, the “pXC50 OATP1B1 inhibitor” value (OATP1B1) was under 4.3, the Kd (BRD1) was over 31.6 µM and the “pXC50 Nav1.5 blocker” value (Nav1.5) was under 4.3. The “pXC50 Aurora B inhibitor” value (Aurora B) was under 4.5, the Kd (SMARCA2) was over 31.6 µM and the “pXC50 Phospholipoidosis induction” value [2] was under 4. For the same molecule, the “pXC50 Acetylcholinesterase (AChE) antagonist” value [3] was under 4.0, the Papp [4] was under 0.3 ×10⁻⁶ cm/s and the “pXC50 hERG blocker” value (hERG) was under 4.3. For the same molecule, the “BROMOscan pKd BRD4 BD1” value (BRD4 BD1 [5]) was 8.1, the “fold selectivity BRD4 BD1 over BD2” value (BRD4 BD1 [5]; BROMOscan) was 316 fold and the “selectivity over all non-BET bromodomains and broader liability targets tested” value (non-BET bromodomains) was at least 1200 fold. The “BROMOscan pKd 20 non-BET bromodomains” value (non-BET bromodomains; 20 non-BET bromodomains other than EP300) was at most 4.8, the “fold selectivity over 20 non-BET bromodomains” value (non-BET bromodomains; BROMOscan) was at least 2000 fold and the “BROMOscan pKd BRD2 BD1” value (BRD2 BD1) was 8.5. For the same molecule, the “fold selectivity BRD2 BD1 over BD2” value (BRD2 BD1; BROMOscan) was 1000 fold, the Kd (CECR2) was over 31.6 µM and the “pXC50 BSEP inhibitor” value (BSEP) was under 3.7. The Kd (BRD8 BD1) was over 31.6 µM, the “XC50 in enhanced cross-screening panel” value [6] was over 25 µM and the “pXC50 in enhanced cross-screening panel” value [6] was under 4.6. For the same molecule, the “pXC50 5-HT1B Agonist” value (5-HT1B) was under 4.0.
